Experimental findings from patent US11938121B2, “Treatment of infections and biofilm formation using a cellulose synthase inhibitor” (Purdue Research Foundation, priority 2020, dated 2024) are described below.

For assay [1], the target named is T1, GFP-CESA6c: GFP-tagged central cytosolic domain of AtCESA6 (cellulose synthase, CESA6) with a His-SUMO tag (Arabidopsis thaliana, UniProt Q94JQ6).
T1 construct: His-SUMO; made in house; host or cells: E. coli
T1 sequence (Q94JQ6 322-868 limits assumed): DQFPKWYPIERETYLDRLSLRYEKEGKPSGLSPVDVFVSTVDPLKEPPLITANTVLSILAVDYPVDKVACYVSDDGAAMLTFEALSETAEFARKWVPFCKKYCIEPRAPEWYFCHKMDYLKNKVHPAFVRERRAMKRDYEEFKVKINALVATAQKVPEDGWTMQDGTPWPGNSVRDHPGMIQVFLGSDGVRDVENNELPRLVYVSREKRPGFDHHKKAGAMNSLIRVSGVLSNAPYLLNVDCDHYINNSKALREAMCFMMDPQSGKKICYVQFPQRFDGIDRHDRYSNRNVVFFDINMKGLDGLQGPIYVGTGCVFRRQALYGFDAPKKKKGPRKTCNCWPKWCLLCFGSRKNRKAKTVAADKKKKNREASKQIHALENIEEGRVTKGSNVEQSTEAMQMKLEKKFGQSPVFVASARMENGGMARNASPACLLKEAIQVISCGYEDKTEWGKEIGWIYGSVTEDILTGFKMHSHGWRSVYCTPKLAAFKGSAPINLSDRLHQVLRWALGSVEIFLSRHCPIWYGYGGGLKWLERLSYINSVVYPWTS
The assay can be described thus: Microscale thermophoresis (MST) binding to purified GFP-tagged CESA6c (wild-type). The settings on record: FIGS. 3K-3M, 100 nM GFP-CESA6c purified from E. coli, pH 7.5, 10 mM MgCl2, 0.05% Tween 20, 5% DMSO, triplicate, read-out: Kd, thermophoresis binding curve, GFP-CESA6c. The source says: FIGS. 3A-3Q. […] FIG. 3A to FIG. 3G. […] FIG. 3A. Representative 5-day-old dark-grown Arabidopsis Col-0 seedlings grown on growth medium supplemented with different concentrations of ES20 or ES20-1. Scale bar: 1 cm. FIG. 3B. Quantification of hypocotyl length of 5-day-old dark-grown Arabidopsis Col-0 seedlings described in FIG. 3A. Data represent mean±SD (n=12 seedlings). FIG. 3C. Quantification of crystalline cellulose content in the hypocotyl cell walls of 7-day-old dark-grown Col-0 seedlings grown on growth medium supplemented with DMSO (0.1%), 1 μM ES20, or 1 μM ES20-1. Data represent mean±SD (n=3 biological replicates). FIG. 3D and FIG. 3E. […] FIG. 3D. Representative image of 6-day-old rice seedlings grown in sterile water supplemented with DMSO (0.1%), 20 μM ES20, or 20 μM ES20-1. Scale bar: 1 cm. FIG. 3E. Quantification of root length of rice seedlings as described in FIG. 3D. Data represent mean±SD (n=10 seedlings). FIG. 3F and FIG. 3G. […] FIG. 3F. Representative image of 6-day-old maize seedlings grown in sterile water supplemented with DMSO (0.1%), 20 μM ES20, or 20 μM ES20-1. Scale bar: 1 cm. FIG. 3G. Quantification of root length of maize seedlings as described in FIG. 3F. Data represent mean±SD (n=12 seedlings). […] FIG. 3H. Representative immunoblot from a DARTS assay of ES20-1 and YFP-AtCESA6. FIG. 3I. Quantitative analysis of the band intensity of YFP-AtCESA6 and SEC12 in ES20-1-treated samples divided by that of DMSO-treated samples in the DARTS assay described in FIG. 3H. Data represent mean±SD (n=6 biological replicates). FIGS. 3J-3N. […] FIG. 3J. Coomassie blue staining of purified GFP-tagged CESA6c with a His-SUMO tag (lane 2). FIGS. 3K, 3L, 3M, 3N. […] FIG. 3O. Coomassie blue staining of purified GFP-tagged CESA6c^P595S with a His-SUMO tag (lane 2). FIG. 3P and FIG. 3Q. […] Statistically significant differences in FIG. 3B were determined using one-way ANOVA followed by Tukey's multiple comparisons test. Lower-case letters represent ANOVA results for plants grown on medium with 0.1% DMSO, different concentrations of ES20 or ES20-1. […]
On the technique in general: In MST a laser heats a spot of the sample, and binding alters the fluorescence response.

The test system of assay [2] is PIN2-GFP, GFP-PIP2a, GFP-HDEL, VHA-a1-GFP, YFP-Got1p. The assay can be described thus: Live-cell imaging of fluorescence-tagged marker proteins. The format is cell-based, Arabidopsis thaliana. The conditions noted are these: 6 μM, 2 h. The procedure: To test the effect of ES20-1 on cellular localization of endomembrane marker proteins, transgenic plants expressing different fluorescence-tagged proteins were grown on ½-strength MS agar plates for 5 d under continuous light. The seedlings were incubated in ½-strength MS liquid media supplemented with 6 μM ES20-1 for 2 h. The images were collected by Zeiss 710 laser scanning confocal microscope equipped with 40×/1.2 NA water objective. For images of GFP-tagged proteins, the 488-nm laser line was used as an excitation source and emission light at 493-598 nm was collected. For images of YFP-tagged proteins, the 514-nm laser line was used as an excitation source and the emission light at 519-621 nm was collected.

The subject of the next assay is maize (Zea mays). The assay can be described thus: Maize seedling root growth. Type of assay: in vivo. The conditions noted are these: 20 μM. The source says: ES20 has broad spectrum inhibitory effect on the growth of both dicotyledonous and monocotyledonous plants (Huang and Zhang, Plant Signal Behav. 2020, 15, 1780039). We tested whether ES20-1 has stronger inhibitory effect on the growth of monocotyledon plants than ES20. We grew rice (Oryza sativa) and maize (Zea mays) seedlings on the same concentrations of ES20 and ES20-1 and compared their effects on growth.

Broadly, the Kd is the equilibrium constant for the complex coming apart. For the molecule `Cc1ccccc1C(=O)NNC(=S)NC(=O)c1ccccc1` [ES20-1], in assay [1], the equilibrium dissociation constant (Kd) turned out to be 4.4 ± 2.5 µM. Further, in assay [2], the “cellular localization of PIN2-GFP” value is listed as “not significantly affected” and the “cellular localization of organelle marker proteins GFP-PIP2a, GFP-HDEL, VHA-a1-GFP, YFP-Got1p” value is “are not affected”. Moreover, the “maize root growth inhibition” value with maize (Zea mays) (6-day-old seedlings) was “could inhibit the root growth”. The “degree of maize root growth inhibition compared with ES20” value with maize (Zea mays) (same dosage) is on record as “much stronger than that of the same dosage of ES20”.
